Where two headings read alike, the source gives them in different places.
Experiments:
[1] = test system: dsDNA (double stranded control sequence); test: FRET melting assay, duplex control; format: binding; conditions: Table S2, primary screening lead compounds, 50:1
Protocol: (§1) To evaluate stabilizing properties of the ligands in a complex with oligodeoxyribonucleotides (ODNs) melting with fluorescence registration was used. ODN (0.5 μM) (Table 1), labeled with 6-carboxyfluorescein (FAM) and 6-carboxytetramethylrhodamine (TAMRA) at the 5′- and 3′-end, respectively, were folded in lithium cacodylate buffer (10 mM, pH 7.4) with 100 mM KCl by heating at 95 °C for 5 min and gradually cooling to r.t. GFP chromophore analogs (5 mM solution in DMSO) were diluted with the same buffer to the final concentration of 25 μM and mixed with an equal volume of 0.5 μM ODN solution resulting in a molar ratio of 50:1 (total volume was 50 μL). For the titration experiments molar ratios of 20:1 and 2:1 were used. Samples were analyzed using DTprime qPCR system (DNA-Technology LLC, Moscow, Russia). Fluorescence was registered by detection of FAM emission at 520 nm upon excitation at 495 nm in the temperature range of 30–95 °C with 1 °C/min gradient. Tm was determined using the instrument software and ΔTm was calculated relative to ODN Tm in a buffer solution containing 0.25% (v/v) DMSO. The primary and secondary screening were carried out in singlicate and triplicate, respectively.
(§2) Initially we screened an in-house library of 440 synthetic GFP chromophore analogues for interaction with HIV-1 LTR-III sequence, which modulates HIV-1 promoter activity, using high-throughput screening (HTS) FRET melting assay (Table S1). […] We selected 11 compounds (Figure 2A), displaying stabilization in the range of 2.4–7.8 °C, and evaluated their ability to stabilize other G4-forming sequences, including human telomeric sequence Telo (one of the most common G4 structures in the human genome, having two conformations, Hybrid-1 and Hybrid-2 [36]) and model G4 […] (the G-rich Pu39 region of the P1 promoter of the oncogene BCL-2, an apoptosis regulator [37] with polymorphic conformational structure), as well as double stranded oligonucleotide (duplex) control sequence (Figure 2B, Table S2).

[2] = test system: human telomeric sequence Telo G4; test: FRET melting assay, Telo; format: binding; conditions: Table S2, primary screening lead compounds, 50:1
Protocol: as §1, §2

[3] = test system: Pu39 G4 (G-rich region of the P1 promoter of BCL-2); test: FRET melting assay, Pu39; format: binding, human; conditions: Table S2, primary screening lead compounds, 50:1
Protocol: as §1, §2

[4] = test system: MT4 cells; test: Cytotoxicity test; format: cell-based; conditions: Table S12, nine days
Protocol: (§3) Green monkey kidney (Vero, Beach, FL, USA) cell line was maintained in 2 × Eagle MEM (“Chumakov FSC R&D IBP RAS”, Russia) with 5% FBS with L-glutamine, penicillin and streptomycin. […] HIV-1 strain NL4-3 was obtained via cell transfection with pNL4-3 3 (ARP2006, NIBSC, Potters Bar, UK).
(§4) MT4 cell suspensions were added to the wells with compound dilutions and DMSO control (approx. 2 × 10^4 cells per well). […] All experimental procedures were performed in two replicates and were repeated two to four times. Mean and SD were calculated with OriginPro 8 (OriginLab, St. Louis, MO, USA).

[5] = Cytotoxicity test; format: cell-based; conditions: human, MT4 cells (human T cell leukemia), Figure 7
Protocol: as §3, §4

[6] = test system: HIV-1 LTR-III G-quadruplex (FAM/TAMRA-labeled LTR-III); test: FRET melting assay, LTR-III G4; format: binding; conditions: for LTR III stabilization: Figure 7, stabilization group; for LTR-III ΔTm: Table S1 primary screening, ligand:ODN 50:1, singlicate; for LTR-III (average): Table S12, average stabilization
Method in brief: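 Melting is followed by FAM fluorescence (ex 495/em 520 nm) while heating at 1 °C/min from 30 to 95 °C. Labelled ODN at 0.5 μM, pre-annealed in 10 mM Li cacodylate, 100 mM KCl, pH 7.4, mixed with ligand at 50:1 (25 μM), or 20:1 and 2:1 for titration. ΔTm is relative to the 0.25% DMSO buffer control.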

[7] = test system: HIV-1 strain NL4-3 in MT4 cells; test: Cytopathic effect inhibition test; format: cell-based; conditions: HIV-1 NL4-3, MT4 cells
Protocol: Human T cell leukemia (MT4) cell line was maintained in RPMI-1640 (“Chumakov FSC R&D IBP RAS”, Moscow, Russia) with 10% of fetal bovine serum (FBS, Invitrogen, Waltham, MA, USA), L-glutamine and gentamicin. Green monkey kidney (Vero, Beach, FL, USA) cell line was maintained in 2 × Eagle MEM (“Chumakov FSC R&D IBP RAS”, Russia) with 5% FBS with L-glutamine, penicillin and streptomycin. Cell cultures were incubated in the present of 5% CO2 at 37 °C. HIV-1 strain NL4-3 was obtained via cell transfection with pNL4-3 3 (ARP2006, NIBSC, Potters Bar, UK).
Eight two-fold dilutions of stock solutions of the compounds in two replicates were prepared in RPMI-1640 (“Chumakov FSC R&D IBP RAS”, Russia). Compound dilutions were mixed with equal volumes of the virus suspension containing 100 CCID50 (50% tissue culture infectious dose). Control cells were treated with the same sequential concentrations of DMSO as in compound dilutions. Then, the MT4 cell suspension (approx. 2 × 10^4 cells per well) in RPMI-1640 containing 10% FBS (Invitrogen, South America) was added to experimental mixtures. A final concentration series started from 25 μM. Each experiment contained virus dose titration in the inoculate to assure the acceptable dose-range. After a nine-day incubation (5% CO2, at 37 °C), cytopathic effect (CPE) was visually accessed via microscope. EC50 values were calculated according to the Karber method. All experimental procedures were performed in two replicates and were repeated two to four times. Mean and SD were calculated with OriginPro 8 (OriginLab, St. Louis, MO, USA).

Structure (SMILES) | ΔTm Duplex [1] [°C] | ΔTm Telo [2] [°C] | ΔTm Pu39 [3] [°C] | СС50 (MT4) [4] [µM] | CC50 at 9 days [5] [µM] | LTR III stabilization [6] [°C] | LTR-III ΔTm [6] [°C] | LTR-III (average) [6] | EC50 ([7]; Human immunodeficiency virus 1, NL43, 216 h, Table S12, CPE, nine-day incubation, read-out: EC50) [µM] | EC50 ([7]; Human immunodeficiency virus 1, NL43, Figure 7, read-out: Antiviral activity EC50 (HIV)) [µM] | EC50 ([7]; Table S12, CPE, nine-day incubation) | ΔTm LTR III ([6]; Table S2, primary screening lead compounds, 50:1) [°C]
CCNc1ccc(/C=C2\N=C(C)N(C)C2=O)cc1 [N 683.1] | 0±0.04 | -0.1±0.04 | 1.4±0.6 | > 25 | > 25 | > 3 | 5 | 3,1 °C |  |  |  | 
COc1ccc(OC)c(/C=C2N=C(/C=C/c3ccncc3)N(C)C\2=O)c1 [N 848.2] | 0.4±0.04 | 2.1±0.01 | 0.1±0.4 | 6.4 ± 1.8 | 6 ± 2 | > 3 | 2.6 | 3,2 °C |  |  |  | 
COc1ccc(O)c(/C=C2N=C(/C=C/c3ccncc3)N(C)C\2=O)c1 [N 848.3] | 0.1±0.09 | 1.1±0.2 | 0.7±0.3 | 5.5 ± 2.2 | 6 ± 2 | > 3 | 2.9 | 3,3 °C |  |  |  | 
COc1cc(/C=C2N=C(/C=C/c3ccncc3)N(C)C\2=O)cc(OC)c1O [N 908] | 0±0.04 | 0.1±0.1 | -0.7±0.2 |  |  |  | 2.4 |  |  |  |  | 
COc1cc(/C=C2N=C(/C=C/c3cc(Cl)nc(Cl)c3)N(C)C\2=O)cc(OC)c1O [N 960a] | -0.5±0.07 | 1±0.7 | 0.5±0.01 | > 25 | > 25 | > 3 | 5.3 | 5,2 °C |  |  |  | 
COc1ccc(/C=C/C2=NC(=C\c3ccc(O)cc3OC)/C(=O)N2C)cc1 [N 1052] | -0.1±0.04 | 3.9±0.1 | 2.1±0.2 | 6.6 ± 3.1 | 7 ± 3 | > 3 | 4.6 | 4,5 °C |  |  |  | 
COc1c(O)ccc(/C=C2N=C(/C=C/c3ccncc3)N(C)C\2=O)c1OC [N 1068.2] | 0.1±0.04 | 1.2±0.2 | 0±0.4 | 3.0 ± 1.0 | 3 ± 1 | > 3 | 7.1 | 6,9 °C | 1.78 ± 0.38 | 1.8 ± 0.4 | micromolar range | 
COc1cc(O)ccc1/C=C1N=C(/C=C/c2ccnc3ccccc23)N(C)C\1=O [ZS 331] | -0.2±0.1 | 2.5±0.3 | 0.8±0.2 | 1.17 ± 0.55 | 1.2 ± 0.6 | > 3 |  | 3,7 °C |  |  |  | 3.3±0.2

Reference: PMC8533149 (Biomolecules, 2021)
